Assay results from US4994441A, “Dental anti-plaque and anti-caries agent” (priority 1987, dated 1991).

Legend:
A. viscosus OMZ 105 [1] = test system: A. viscosus OMZ 105
A. naeslundii ATCC 12104 = settings: A. naeslundii ATCC 12104, no control of growth phase; desialylated human erythrocytes (A+); none = no inhibition up to 20 mg/ml
A. viscosus OMZ 105 [2] = settings: for Inhibition (%) of bacterial adhesion to plastic tubes: 1 mg/ml, 4 h; for Inhibitory effect on adhesion to plastic tubes (in words): preliminary tests
S. mutans OMZ 176 = assay: Inhibition of bacterial adhesion to plastic (polypropylene) tubes; settings: 1 mg/ml, 4 h
S. sanguis OMZ 9 = settings: for Inhibition (%) of bacterial adhesion to plastic tubes: 1 mg/ml, 4 h; for Inhibitory effect on adhesion to plastic tubes (in words): preliminary tests

| Molecule | Inhibition (%) of bacterial adhesion to plastic tubes (A. viscosus OMZ 105 [2]) | Inhibition (%) of bacterial adhesion to plastic tubes (S. mutans OMZ 176) | Inhibition (%) of bacterial adhesion to plastic tubes (S. sanguis OMZ 9) | Inhibitory effect on adhesion to plastic tubes (in words) (A. viscosus OMZ 105 [2]) | Inhibitory effect on adhesion to plastic tubes (in words) (S. sanguis OMZ 9) | also measured |
| --- | --- | --- | --- | --- | --- | --- |
| OC[C@H]1O[C@@H](O[C@H]2[C@H](O)[C@@H](O)C(O)O[C@@H]2CO)[C@H](O)[C@@H](O)[C@H]1O (some centres unmarked) [Lactose] | – | – | – | – | – | Minimum concentration resulting in complete inhibition of hemagglutination (A. viscosus OMZ 105 [1]; A. viscosus OMZ 105, no control of growth phase, desialylated human erythrocytes (A+), none = no inhibition up to 20 mg/ml): none; Concentration expressed in galactoside equivalents/ml (minimum concentration resulting in complete inhibition of hemagglutination) (A. viscosus OMZ 105 [1]; A. viscosus OMZ harvested in the exponential phase): > 10 mg/mL; Concentration expressed in dry weight/ml (minimum concentration resulting in complete inhibition of hemagglutination) (A. viscosus OMZ 105 [1]; A. viscosus OMZ harvested in the exponential phase, none = no inhibition up to 20 mg/ml): none; Minimum concentration resulting in complete inhibition of hemagglutination (A. naeslundii ATCC 12104): none |
| COC1OC(CO)C(O)C(O)C1O (stereo not drawn) [Methyl α annoside] | 10% | 3% | 11% | – | – | – |
| O=C[C@H](O)[C@@H](O)[C@H](O)[C@H](O)CO [glucose] | – | – | – | nonactivity | nonactivity | – |
| NCC(=O)O [glycine] | – | – | – | nonactivity | nonactivity | – |
| Polyglutamic acid | 22% | 20% | 6% | – | – | – |
| Polylysine | 46% | 30% | 12% | – | – | – |
